From paper PMC9145393, “Design, Semisynthesis, and Estrogenic Activity of Lignan Derivatives from Natural Dibenzylbutyrolactones” (Pharmaceuticals, 2022)

Key:
[1] = system: ER-dependent transcriptional activity in T47D-KBluc cells; assay: ERE-luciferase reporter in T47D-KBluc cells, agonist assessment (absence of E2); type: cell-based, human
Description: Lactols (5) and (6) were tested as a mixture of the two epimers obtained.
Chemical screening was carried out by using T47D-KBluc cells, an ER+ BC cell line that is stably transfected with the pGL2.TATA.Inr.Luc.neo containing three ER-responsive elements (ERE). The T47D-KBluc cells were maintained in standard growth media as detailed above. Dosing media was further modified by reduction of DCC-FBS to 5%. […] Chemical screening was also carried out by using the triple negative BC cell line MDA-kb2 cells that stably expresses pMMTV.neo.luc gene, an AR- and GR-responsive reporter gene. […] The T47D-KBluc cells or the MDA-kb2 cells were seeded at 100,000 cells per well in 24-well plates (Nunclon, Sigma-Aldrich, Darmstadt, Germany ) and allowed to attach overnight. Then, the media was replaced with 1 mL/well of dosing media and test compounds incubated 24 h. Then, the cells were harvested in 100 µL passive lysis buffer (Promega, Madison, WI, USA) per well. The relative light units (RLUs), which correspond to luciferase activity from each sample, were measured by using Luciferase Assay Reagent (Promega) in a Clarity luminescence microplate reader (BIOTEK, Winooski, VT, USA). The RLUs from each sample were normalized by protein concentration and converted to fold induction with respect to vehicle-treated control. […] Then, the percent of efficacy (E) of each tested compound, as compared with Emax, was calculated. […] Data are expressed as mean ± SEM of triplicate independent experiments, where each treatment was assayed in triplicate. […] Duplicate plates were dosed in parallel to control the effects of compounds on cell viability. The protein concentration was measured in cell lysate using colorimetric assay reagent (BioRad, CA, USA).

[2] = molecular target: T1, rhERα-LBD (Homo sapiens, UniProt P03372); assay: LanthaScreen TR-FRET competitive binding assay; conditions: 10-point competition curves; Mean ± SE; read-out: IC50 (inhibition of Fluormone tracer binding to rhERα)
T1 sequence (P03372 311-547 limits assumed): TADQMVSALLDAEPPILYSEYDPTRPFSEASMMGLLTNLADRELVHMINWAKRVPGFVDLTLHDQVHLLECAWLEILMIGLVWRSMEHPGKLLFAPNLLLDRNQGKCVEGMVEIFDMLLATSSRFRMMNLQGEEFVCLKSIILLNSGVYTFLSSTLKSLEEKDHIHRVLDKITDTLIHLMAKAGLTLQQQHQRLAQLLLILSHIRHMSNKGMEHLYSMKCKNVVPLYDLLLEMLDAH
Description: Next, the binding of lignan derivatives to the LBD of rhERα was analyzed by using time-resolved fluorescence resonance energy transfer (TR-FRET) competitive binding assay. […] The LanthaScreen^TM TR-FRET Nuclear Receptor (NR) binding assay (SelectScreen^TM Profiling Service, Life Technologies, Carlsbad, CA, USA) was used for screening of potential binding of lignan derivatives to human ERα [33]. Briefly, the kit uses the recombinant human ERα (rhERα) protein and a tight binding, selective fluorescent ligand, Fluormone^TM tracer. […] The rhERα protein and the tracer form rhERα/tracer complex, resulting in a high FP value. […] Dose-response competition curves were fitted by nonlinear regression analyses in the GraphPad software 8 (GraphPad Software, San Diego, CA, USA) to obtain IC50 values.
Data are expressed as mean ± SEM for from at least three independent experiments, where each concentration is tested in triplicate.

[3] = molecular target: T2, ERα from rat uterine cytosol (RUC) (Rattus norvegicus, UniProt P06211); assay: Rat uterine cytosol competitive radioligand ([3H]E2) binding assay
T2 construct: from tissue
T2 sequence (P06211 1-600): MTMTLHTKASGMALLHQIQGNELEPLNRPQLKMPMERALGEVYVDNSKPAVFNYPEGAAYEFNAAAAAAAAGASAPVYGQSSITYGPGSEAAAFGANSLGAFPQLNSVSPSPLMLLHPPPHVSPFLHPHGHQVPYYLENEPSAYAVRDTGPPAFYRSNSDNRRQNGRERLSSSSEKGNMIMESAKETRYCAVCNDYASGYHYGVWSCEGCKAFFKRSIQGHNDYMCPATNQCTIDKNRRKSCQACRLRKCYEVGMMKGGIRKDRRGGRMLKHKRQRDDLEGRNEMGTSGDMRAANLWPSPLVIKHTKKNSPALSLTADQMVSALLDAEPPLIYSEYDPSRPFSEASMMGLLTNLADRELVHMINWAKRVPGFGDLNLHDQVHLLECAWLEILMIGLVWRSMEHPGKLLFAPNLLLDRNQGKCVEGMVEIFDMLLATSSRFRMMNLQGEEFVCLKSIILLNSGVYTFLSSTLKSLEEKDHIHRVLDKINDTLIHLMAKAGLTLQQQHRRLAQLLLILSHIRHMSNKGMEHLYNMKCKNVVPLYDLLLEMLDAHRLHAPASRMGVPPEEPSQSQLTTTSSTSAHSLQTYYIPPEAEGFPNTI

[4] = system: T47D cells; assay: MTT cell viability, E2-depleted T47D cells; type: cell-based, human; conditions: 10 μM, 24 h, absence of E2
Description: (§1) The effects of lignan derivatives were evaluated on human ER+ BC cells.
(§2) Cells were maintained in RPMI (Lonza, Basel, Switzerland) growth media, without phenol red, supplemented with 10% fetal bovine serum (FBS) (Lonza), 2 mM glutamine, 10 mM HEPES, 1 mM sodium pyruvate, 100 UI/mL penicillin and 100 μg/mL streptomycin. Cells were growth in a humidified incubator with 5% CO2 at 37 °C.
(§3) The cells were maintained in standard growth media as detailed above and seeded at exponential growth density (6000 cells per well) in 96-well plates (BD Falcon, France). The cells were then treated with vehicle or tests compounds (from 0.01 μM to 10 μM) for 24–72 h. The mitochondrial metabolization of the tetrazolium salt 3-(4,5-methyltiazol-2yl-)-2,5diphenyl-tetrazolium bromide] (MTT) (Applichen, Darmstadt, Germany) was used as an indicator of cell viability.
(§4) Figure 6 Effects of lignans on ER+ breast cancer cell viability. […] Then, the mitochondrial metabolization of MTT was used as an indicator of cell viability, as described in the Material and Methods. Data are expressed as mean ± SEM for at least three independent experiments, where each concentration is tested in triplicate. * p < 0.05, ** p < 0.01, and *** p < 0.001 versus VEH-treated cells.

[5] = system: T47D and MCF7 cells; assay: MTT cell viability, E2 non-depleted T47D and MCF7 cells, 72 h; type: cell-based, human; conditions: 10 μM, maximum reduction
Description: as §1, §2, §3, §4

**Q.** Which “E/Emax (%) VEH” value [1] does the source give for `COc1ccc(C[C@@H](C)[C@H](C)Cc2ccc(O)c(O)c2)cc1OC` [Compound 14, 4-((2R,3R)-4-(3,4-Dimethoxyphenyl)-2,3-dimethylbutyl)benzene-1,2-diol] here?
**A.** weak estrogenic activity

**Q.** What about the Emax ([1]; Homo sapiens, read-out: E/Emax (%) VEH) of the same compound?
**A.** 21.7 ± 4.12%

**Q.** And the IC50 [2]?
**A.** 0.16 ± 0.11 µM

**Q.** What about the IC50 [3] of the same compound?
**A.** 3.96 ± 0.98 µM

**Q.** What about the “reduction of cell viability” value [4] of the same compound?
**A.** reduced cell viability

**Q.** What about the “reduction of cell viability” value [5] of the same compound?
**A.** 33.4%
